# Assay results reported in US4168206A, “Impregnated disk method for testing antifungal susceptibility” (Philadelphia College of Osteopathic Medicine, priority 1977, dated 1979).
# Read-outs that look alike come from different tables or passages of the source.
# What was measured:
# Assay type in all cases: cell-based
# Torulopsis glabrata = assay: MIC by impregnated disk method, Torulopsis glabrata; conditions: Nakaseomyces glabratus, read-out: Minimum Inhibitory Concentration, Disk
# Procedure: (§1) Stock solutions of the antifungal agents to be tested are preferably prepared by diluting the antifungal agents in the proper nutrient medium. It is presently preferred to prepare dilutions in 10 ml of the proper medium to give the following final concentrations when applied to the disks (all quantities in micrograms per milliliter): 0.05, 0.08, 0.09, 0.1; 0.1 increment increases to 0.9, 1.0; 0.5 increment increases to 10.0; and 12.0, 14.0, 20.0, 25.0 and 50.0. Disks have been prepared by placing 0.05 ml of the above dilutions of antifungal agent containing medium on 6.5 mm diameter disks in 0.01 or 0.02 ml increments. The impregnated disks are then allowed to dry at a temperature preferably below about 10° C. […] The disks may also be dried by a lyophilization or freeze drying process.
# (§2) To perform the tests in accordance with the present inventions, disks impregnated with various concentrations of antifungal agent and nutrient medium and a control disk impregnated only with the corresponding nutrient medium are placed on the fungus to be tested which has been applied to the non-nutrient medium. The disks are the inoculated non-nutrient medium are then incubated at a suitable temperature for a sufficient time to promote growth of the fungus. Any temperature is suitable if it will promote growth of the fungus without adversely affecting the fungus or the activity of the antifungal agent or agents tested. The time of incubation can be determined by observing the extent of growth around the control disk. […] The zones of growth or inhibition around the disks were read at 6, 12, 24, 36 and 48 hours after the disks were placed on the tested fungus.
# (§3) The minimum inhibitory concentration is defined as the lowest concentration of antifungal agent which inhibits visible growth. […]
# (§4) Several test disks and a control disk were placed in each petri dish containing the inoculated agar. The disks and petri dishes were then incubated at 29° C. and the minimum inhibitory concentration of the various concentrations of the antifungal agents were read at 6, 12, 24, 36 and 48 hours. […]
# Candida tropicalis = assay: Susceptibility to combination of antifungal agents on disks (Example 3)
# From the text: The method of the present invention also may be used to test combinations of antifungal agents. In this method, more than one antifungal agent of known concentration is impregnated in each test disk.
# Each disk is impregnated with a particular known concentration of at least one particular antifungal agent, except for the control disks. When the susceptibility of a fungus to combinations of antifungal agents is being tested, more than one antifungal agent is impregnated in each test disk.
# The susceptibility of two other isolates to combinations of antifungal agents were tested by combining more than one antifungal agent on each test disk. A series of test disks were prepared containing various combinations of antifungal agents in various concentrations and were used in the method of the present invention. The results of this procedure are summarized in the following specific, non-limiting examples:
# An isolate of Candida tropicalis was initially tested for amphotericin B susceptibility of 0.5 μg/ml. When a combination of amphotericin B and tetracycline were combined on the disks used in the testing procedure according to the present invention, effective inhibition of the isolate occurred using 0.05 μg/ml of amphotericin B and 0.2 μg/ml of tetracycline.
# C. tropicalis [1] = assay: MIC by impregnated disk method, Candida tropicalis; conditions: Candida tropicalis, read-out: Minimum Inhibitory Concentration, Disk
# Procedure: as §1, §2, §3, §4
# Saccharomyces cerevisiae [2] = assay: MIC by broth dilution method, Saccharomyces cerevisiae; conditions: Saccharomyces cerevisiae
# From the text: (§5) The preparation of the nutrient media, the antifungal agents and the fungi to be tested in the present invention are similar to those reported in S. Shadomy and A. Espinel-Ingroff, "Susceptibility Testing Of Antifungal Agents", Ch. 63, pp. 569-574 in E. H. Lennett, E. H. Spaulding, and J. P. Truant, Eds., Manual Of Clinical Microbiology, 2nd Ed., American Society for Microbiology, Washington, D.C. (1974). This publication describes the susceptibility testing of antifungal agents, namely, amphotericin B, nystatin and 5-fluoro-cytosine (5-FC), by the "broth dilution method" and the "semisolid agar dilution method". At pages 570-571, it is stated:
# (§6) In 10 duplicate runs with each strain tested, the variation in minimum inhibitory concentration averaged ±0.05 μg/ml.
# (§7) *Broth dilution method conducted in accordance with S. Shadomy and E.
# (§8) Espinel-Ingroff, "Susceptibility Testing of Antifungal Agents", Ch. 63,
# (§9) pp. 569-574 in E. H. Spaulding and J. P. Truant, Eds., Manual Of Clinical
# (§10) Microbiology, 2nd Ed., American Society for Microbiology, Washington, […]
# C. tropicalis [3] = assay: MIC by broth dilution method, Candida tropicalis; conditions: Candida tropicalis, read-out: Minimum Inhibitory Concentration, Broth
# From the text: as §5, §6, §7, §8, §9, §10
# Saccharomyces cerevisiae [4] = assay: MIC by impregnated disk method, Saccharomyces cerevisiae; conditions: Saccharomyces cerevisiae
# Procedure: as §1, §2
# The minimum inhibitory concentration is defined as the lowest concentration of antifungal agent which inhibits visible growth. The disks containing concentrations of antifungal agents below the minimum inhibitory concentration show circumscribed growth of the fungus around the disk. Disks containing concentrations of antifungal agent at or above the minimum inhibitory concentration show no circumscribed growth.
# Clinical isolates of various fungi listed in Table 1 were obtained from different patients diagnosed as having fungal infections. The fungal inocula were prepared by using a 24-48 hour cultures grown in yeast nitrogen base containing 1% glucose and 0.15% asparagine. After centrifuging, the supernatant was removed, the sedimented cells were washed twice with sterile distilled water and a cell suspension was adjusted to 80% transmission at 520 nm using a Beckman DB-GT grating spectrophotometer.
# Sterile liquified 2% purified agar was placed in petri dishes and allowed to harden. The surface of the agar was inoculated with a sterile cotton swab saturated with a suspension of an organism. The uniformly swabbed plates were then allowed to dry.
# Disks were prepared using the dilutions described above for amphotericin B, nystatin and 5-fluorocytosine. 0.05 ml of the dilutions of each antifungal agent diluted with the appropriate nutrient medium were pipetted on 6.5 mm diameter disks. The disks were dried at 4° C. after each application. Control disks were also prepared.
# Several test disks and a control disk were placed in each petri dish containing the inoculated agar. The disks and petri dishes were then incubated at 29° C. and the minimum inhibitory concentration of the various concentrations of the antifungal agents were read at 6, 12, 24, 36 and 48 hours.
# as §6
# Candida albicans = assay: Minimum fungicidal concentration by disk method; conditions: 48 h
# Procedure: Minimum fungicidal concentration is defined as the lowest concentration of antifungal agent from which subcultures were negative or where no overgrowth occurs. In tests of Candida albicans, the minimum inhibitory concentration can usually be determined at about 24 hours. Minimum fungicidal concentration may be determined by incubation for an additional 24 hours. At concentrations below the minimum fungicidal concentration, overgrowth occurs by 48 hours.
# The minimal fungicidal concentrations of amphotericin B for the first 6 isolates of Candida albicans listed in Table 1 were determined by incubating the disks and organisms for 48 hours. At concentrations below the minimum fungicidal concentration, overgrowth occurred by 48 hours.
# Geotrichum candidum = assay: MIC by broth dilution method, Geotrichum candidum; conditions: read-out: Minimum Inhibitory Concentration, Broth
# From the text: as §5, §6, §7, §8, §9, §10
smiles,measurement,setting,value
"C[C@@H]1[C@H](O)[C@@H](C)/C=C/C=C/C=C/C=C/C=C/C=C/C=C/[C@H](O[C@@H]2O[C@H](C)[C@@H](O)[C@H](N)[C@@H]2O)C[C@@H]2O[C@](O)(C[C@@H](O)C[C@@H](O)[C@H](O)CC[C@@H](O)C[C@@H](O)CC(=O)O[C@H]1C)C[C@H](O)[C@H]2C(=O)O [Amphotericin B, amphotericin B]",MIC,Torulopsis glabrata,0.2 µg/mL
same,MIC,"Candida tropicalis; Candida tropicalis isolate, alone, initially tested, read-out: amphotericin B susceptibility",0.5 µg/mL
same,"effective inhibition of the isolate, concentration of amphotericin B",Candida tropicalis; in combination with tetracycline 0.2 μg/ml,0.05 µg/mL
same,MIC,C. tropicalis [1],0.7 µg/mL
same,MIC,"Saccharomyces cerevisiae [2]; read-out: Minimum Inhibitory Concentration, Broth, S. cerevisiae isolate 2",0.8 µg/mL
same,MIC,"Saccharomyces cerevisiae [2]; read-out: Minimum Inhibitory Concentration, Broth, Saccharomyces cerevisiae isolate 1",0.4 µg/mL
same,MIC,C. tropicalis [3],0.8 µg/mL
same,MIC,"Saccharomyces cerevisiae [4]; read-out: Minimum Inhibitory Concentration, Disk, S. cerevisiae isolate 2",0.6 µg/mL
same,MIC,"Saccharomyces cerevisiae [4]; read-out: Minimum Inhibitory Concentration, Disk, Saccharomyces cerevisiae isolate 1",0.4 µg/mL
same,MFC,"Candida albicans; isolate 3, read-out: Minimum Fungicidal Concentration, Disk",0.9 µg/mL
same,MFC,"Candida albicans; isolate 4, read-out: Minimum Fungicidal Concentration, Disk",0.9 µg/mL
same,MFC,"Candida albicans; isolate 6, read-out: Minimum Fungicidal Concentration, Disk",5 µg/mL
same,MFC,"Candida albicans; read-out: Minimum Fungicidal Concentration, Disk, isolate 1",1.4 µg/mL
same,MFC,"Candida albicans; read-out: Minimum Fungicidal Concentration, Disk, isolate 2",1.6 µg/mL
same,MFC,"Candida albicans; read-out: Minimum Fungicidal Concentration, Disk, isolate 5",1.8 µg/mL
same,MIC,Geotrichum candidum,0.9 µg/mL
